Experimental data taken from patent US20240166641A1, “HETEROCYCLES AND USES THEREOF” (Kumquat Biosciences Inc., priority 2021, published 2024).

Assays:
[1] = test system: C57B3L/6 mouse primary T cells; assay: T-cell activation: CD25 expression on primary T cells stimulated with anti-CD3/CD28; assay type: cell-based; details: 10 uM compound, primary T cells stimulated with antibodies to CD3 and CD28
Procedure: The increase of T cell activation and most importantly T cell function is a strategy for novel immune oncology approaches to promote tumor immunity. In vitro assays using wildtype C57B3L/6 mouse primary T cells are commonly used to assess the impact of compound on T cell activation and function. To assess the ability of compounds disclosed here (e.g., PTPN2 inhibitors) to stimulate T cell activation, primary T cells stimulated with antibodies to CD3 and CD28 are treated with or without exemplary compounds (at 10 uM) disclosed herein are stained with antibodies directed to T-cell activation markers, such as CD25. Additional markers including without limitation CD69, SLAMF6, TIM3, and PD1 can also be employed as a proxy for T cell activation.

PTP1B = molecular target: T1, PTP1B (Homo sapiens, UniProt P18031); assay: Phosphatase activity assay (Bio-Biochem-DiFMUP), PTP1B; assay type: biochemical; details: DiFMUP substrate, room temperature
T1 sequence (P18031 1-435): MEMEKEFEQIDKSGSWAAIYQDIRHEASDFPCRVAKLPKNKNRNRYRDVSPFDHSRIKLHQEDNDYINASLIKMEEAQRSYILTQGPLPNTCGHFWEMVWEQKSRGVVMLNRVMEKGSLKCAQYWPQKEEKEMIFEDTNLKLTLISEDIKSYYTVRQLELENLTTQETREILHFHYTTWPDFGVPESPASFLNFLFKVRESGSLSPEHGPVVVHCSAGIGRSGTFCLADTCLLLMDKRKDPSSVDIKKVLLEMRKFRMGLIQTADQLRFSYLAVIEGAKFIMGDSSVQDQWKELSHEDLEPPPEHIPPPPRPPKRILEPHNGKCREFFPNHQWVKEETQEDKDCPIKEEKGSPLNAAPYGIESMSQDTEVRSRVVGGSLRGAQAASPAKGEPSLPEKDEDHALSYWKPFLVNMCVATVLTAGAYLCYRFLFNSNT
Procedure, shortened: (§1)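 Buffer was 50 mM Bis-Tris pH 6.3, 2 mM EDTA, 5 mM DMH, with 10 μM FDP or DiFMUP substrate, enzyme added last, at room temperature. Fluorescent product was read continuously for 15–30 min (DiFMU ex 360/em 450 nm; FMP ex 440/em 530 nm). Initial rates against 10-point inhibitor series were fitted with a 4-parameter equation to give IC50.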

PTPN2 = molecular target: T2, PTPN2 (Homo sapiens, UniProt P17706); assay: Phosphatase activity assay (Bio-Biochem-DiFMUP), PTPN2; assay type: biochemical; details: DiFMUP substrate, room temperature
T2 sequence (P17706 1-415): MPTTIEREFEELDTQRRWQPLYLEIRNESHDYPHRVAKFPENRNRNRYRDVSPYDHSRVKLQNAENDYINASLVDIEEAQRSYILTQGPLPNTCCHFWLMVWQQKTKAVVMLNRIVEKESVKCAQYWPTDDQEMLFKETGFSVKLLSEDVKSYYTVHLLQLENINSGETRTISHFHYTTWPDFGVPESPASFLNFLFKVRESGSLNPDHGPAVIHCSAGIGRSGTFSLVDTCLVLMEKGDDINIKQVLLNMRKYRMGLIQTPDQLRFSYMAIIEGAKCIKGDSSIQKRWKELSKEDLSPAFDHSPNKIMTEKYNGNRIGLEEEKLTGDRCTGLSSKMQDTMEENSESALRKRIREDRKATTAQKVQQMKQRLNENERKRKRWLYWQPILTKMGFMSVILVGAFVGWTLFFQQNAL
Procedure, shortened: as §1

[2] = mouse PK PO (oral pharmacokinetics, Compound A vs. Reference CMPD); assay type: in vivo; details: identical oral dosing
Procedure: (§2) Furthermore, an AUCfinal for Compound A was measured to be 356% that of the Reference CMPD measured in the same manner and at the same time in the same mouse model. […] Furthermore, an AUCfinal for Compound A was measured to be 224% that of the Reference CMPD measured in the same manner and at the same time in the same rat model.

B16F10 cells [3] = assay: Tumor infiltrating lymphocyte exhaustion assay; assay type: in vivo, mouse; details: Day 7 post dosing, B16F10 tumors in C57BL/6 mice
Source text: The same mouse model is utilized to assess the amount of tumor infiltrating lymphocytes when treated with or without an exemplary compound A of the present disclosure. C57BL/6 mice were implanted with 5*10^5 B16F10 cells formulated in Matrigel via the subcutaneous route. After tumors reached a size of 50-150 mm^3, mice were randomized. 7 days post randomization, tumor cells were processed on a GentleMACS octo dissociator and stained for exhaustion markers using a panel of antibodies: Live/Dead, CD45.1, CD8, TIM-3, PD-1, SLAMF6, CD11b, CD38. In parallel, splenocytes were stained with the same cocktail of antibodies and analyzed by flow cytometry. […] PTPN2 inhibitors are tested in the described TIL exhaustion assay to measure modulation of exhaustion in the tumor microenvironment.

B16F10 cells [4] = assay: In vivo efficacy in B16F10 mouse tumor model; details: B16F10 in female C57BL/6 mice, oral BID, 100 or 300 mg/kg/dose
Procedure: Cells are grown to passage 3 in vitro. A total of 1 to 5×10^5 viable B16F10 cells are inoculated subcutaneously into the right flank of female C57BL/6 mice (7-12 weeks old) on Day 0. The injection volume is 0.1 mL and is composed of a 1: 1 mixture of S-MEM and Matrigel® (Corning, NY, USA). The mean tumor volume (TV) at randomization is approximately 100-200 mm^3. Following randomization, treatments are initiated on the same day. Dosing of mice is conducted orally, twice a day (BID). Mice are dosed (100 mg/kg/dose or 300 mg/kg/dose) with a compound described herein or vehicle controls. Tumor volume is calculated three times weekly. Measurements of the length (L) and width (W) of the tumor are taken via electronic caliper and the volume is calculated according to the following equation: V=L×W^2/2. Tumor growth inhibition (TGI) is calculated as TGI=1−(Mean TV Timepoint(Treatment)/MeanTV Timepoint (Vehicle)) for each timepoint that tumor volumes are measured and depicted in FIG. 3.

[5] = Rat PK PO (oral pharmacokinetics, Compound A vs. Reference CMPD); assay type: in vivo; details: identical oral dosing
Procedure: as §2

mouse C57BL/6 T cells = assay: pSTAT1 signaling in IFNα-stimulated T cells, flow cytometry; assay type: cell-based; details: T-cell, 10 uM compound, T cells stimulated for 5 hours by IFNα, read-out: % pSTAT1 in cells treated with subject compounds relative to negative control (DMSO)
Procedure: IFNα signaling in mouse C57BL/6 T cells promotes activation of multiple signaling pathways associated with antitumor responses. A key target of this signaling is phosphorylation of the transcription factor STAT1. […] T cells are stimulated for 5 hours by IFNα in the presence or absence of exemplified compounds disclosed herein (e.g., PTPN2 inhibitors) and stained intracellularly with antibodies for phosphorylated STAT1 and then analyzed by flow cytometry. Enhancement of phosphorylation of STAT1 is read out as a percentage over the DMSO control.

[6] = test system: B16F10 mouse melanoma cells; assay: MHC expression associated with IFNγ signaling, flow cytometry; assay type: cell-based; details: B16-F10, 3 uM compound, 48 hours, normalized to DMSO/with IFNγ control, read-out: % MHC in cells treated with Compound at 3 uM relative to negative control (DMSO)
Procedure: B16F10 mouse melanoma cells (ATCC Cat #CRL-6475, Manassas, VA) are seeded at approximately a density of 500 cells per well in a 384-well clear bottom plate (Corning Cat #3765, Corning, 5 NY) in 25 μL total volume of DMEM+10% FBS (Sigma Cat #D6429 and Sigma Cat #F4135, St. Louis, MO). Cells are allowed to adhere overnight at 37° C.+5% CO2. On the following day, 12.5 μL of mouse IFNγ (RD systems Cat #485-MI/CF, Minneapolis, MN) is added to half of the plate (columns 13-24) at a concentration of 2 ng/mL for a final assay concentration of 0.5 ng/mL of IFNγ. Media only (12.5 μL of DMEM+10% FBS) is added to the remainder of the 10 plate (columns 1-12). Next, compounds resuspended in DMSO (Sigma Cat #D2650) at 100 mM are diluted in semi-log dilutions in DMSO ranging from 100 mM to 0.001 mM and DMSO only controls are included. The compound/DMSO dilutions are further diluted 1:250 in DMEM+10% FBS, and 12.5 μL of these dilutions are added in triplicates to cells of both treatment arms (with and without IFNγ). Compounds are only dosed in the inner 240 wells, avoiding the outer 2-well perimeter of the plate to minimize edge effects. Finally, the plate is loaded into an IncuCyte® S3 Live Cell Analysis System (Essen Bioscience-Sartorius, Ann Arbor, MI) maintained in a 37° C.+5% CO2 incubator, allowed to equilibrate for 2 hours, and treated for 48 hours. MHC levels are measured by flow cytometry using a FITC anti-mouse H-2kb antibody (clone AF6-88.5), and levels are normalized based on DMSO/with IFNγ control. Table 7 below summarizes the percentage in MHC expression in cells treated with or without compounds disclosed herein at a specified concentration.

OT-1 cells = assay: T-cell activation: intracellular production of IFNγ and TNFα in exhausted OT-1 cells; assay type: cell-based; details: 10 uM compound, OT-1 cells restimulated with 1 μM OVA, read-out: % TNFa + /IFNg + production in compound-treated cells (uM compound) relative to negative control (DMSO)
Procedure: 1*10^6 OT-1 cells are seeded in a 24well in a volume of 1 mL of RPMI/10% FCS, and activated with 10 nM OVA protein for 48 h. Cells are then split 1:4 into 96well plates after two washes in warm media. To induce exhaustion, cells are then expanded for 3 days in the presence of vehicle control or a compound described herein (e.g., PTPN2 inhibitor) various concentrations, as well as 5 ng/ml IL-7 and 5 ng/ml IL-15, with the addition of fresh OVA on each day. After this point, cells are treated with Brefeldin A and restimulated with 1 μM of OVA for 4-6h, and cells are stained to assess production of IFNγ and TNFα intracellularly by flow cytometry. The results are shown as increase in percentage production of IFNγ and TNFα in cells treated with an exemplified compound at 10 uM, relative to a negative control (DMSO) of cells without being treated with the compound but merely DMSO (a solvent in which exemplified compounds are dissolved). See Table 10 below summarizes percentage increase in IFNγ and TNFα intracellular production in cells treated with an exemplified compound (at 10 uM) or without it, relative to a negative control (DMSO).

[7] = mouse PK PO, relative to Reference CMPD of WO2019/246513
[8] = Rat PK PO, relative to Reference CMPD of WO2019/246513

| IC50 (PTP1B) [nM] | IC50 (PTPN2) [nM] | Structure (SMILES) | % CD25 expression in cells treated with subject compounds relative to negative control (DMSO) [1] [%] | activity at 10 µM (mouse C57BL/6 T cells) [%] | further results |
| --- | --- | --- | --- | --- | --- |
| ≤ 1000 | ≤ 1000 | O=C1CN(c2c(O)cc3ccc(OC4CCC4)nc3c2F)S(=O)(=O)N1 [Compound 205] | 423 |  |  |
| ≤ 1000 | ≤ 1000 | CC(C)Oc1ccc2cc(O)c(N3CC(=O)NS3(=O)=O)c(F)c2n1 [Compound 192] | 375 | 183 |  |
| ≤ 1000 | ≤ 1000 | O=C1CN(c2c(O)cc3ccc(OC(F)F)nc3c2F)S(=O)(=O)N1 [Compound 197] | 436 | 196 | activation at 3 µM [6]: > 10% |
| ≤ 1000 | ≤ 1000 | O=C1CN(c2c(O)cc3c(cc(NC4CCCC4)c(=O)n3C3CC3)c2F)S(=O)(=O)N1 [Compound 185] |  | 181 |  |

Second part, the molecule before the results:

| Structure (SMILES) | IC50 (PTP1B) [nM] | IC50 (PTPN2) [nM] | % CD25 expression in cells treated with subject compounds relative to negative control (DMSO) [1] [%] | activity at 10 µM (mouse C57BL/6 T cells) [%] | further results |
| --- | --- | --- | --- | --- | --- |
| COc1ccc2cc(O)c(N3CC(=O)NS3(=O)=O)c(F)c2n1 [Compound A] |  |  |  |  | % F, Compound A vs. Reference CMPD ((Compound A/Reference CMPD) × 100%) [2, 7]: 195%; AUClast, Compound A vs. Reference CMPD ((Compound A/Reference CMPD) × 100%) [2, 7]: 356%; Cmax, Compound A vs. Reference CMPD ((Compound A/Reference CMPD) × 100%) [2, 7]: 495%; AUCfinal of Compound A as % of that of the Reference CMPD ([2]; mouse pharmacokinetic model, relative to Reference CMPD): 356%; CD38+/CD11b+ “M1” Macrophages (B16F10 cells [3]): increase; TIM3+/PD1+ T cells (B16F10 cells [3]): increase; Tumor volume / tumor growth inhibition (FIG. 3) (B16F10 cells [4]): apparent tumor stasis and shrinkage; % F, Compound A vs. Reference CMPD ((Compound A/Reference CMPD) × 100%) [5, 8]: 208%; AUClast, Compound A vs. Reference CMPD ((Compound A/Reference CMPD) × 100%) [5, 8]: 224%; Cmax, Compound A vs. Reference CMPD ((Compound A/Reference CMPD) × 100%) [5, 8]: 155%; AUCfinal of Compound A as % of that of the Reference CMPD ([5]; rat pharmacokinetic model, relative to Reference CMPD): 224% |
| CC(C)Nc1cc2c(F)c(N3CC(=O)NS3(=O)=O)c(O)cc2n(C2CC2)c1=O [Compound 133] | ≤ 1000 | ≤ 1000 |  | 170 |  |
| CC(C)CCOc1cc2c(F)c(N3CC(=O)NS3(=O)=O)c(O)cc2n(C)c1=O [Compound 136, 5-(5-fluoro-7-hydroxy-3-(isopentyloxy)-1-methyl-2-oxo-1,2-dihydroquinolin-6-yl)-1,2,5-thiadiazolidin-3-one 1,1-dioxide] | ≤ 1000 | ≤ 1000 |  | 131 |  |
| CC(C)Nc1cc2c(F)c(N3CC(=O)NS3(=O)=O)c(O)cc2n(C)c1=O [Compound 165] | ≤ 1000 | ≤ 1000 |  | 139 |  |
| CC(C)(C)CCOc1ccc2cc(O)c(N3CC(=O)NS3(=O)=O)cc2n1 [Compound 183] | ≤ 1000 | ≤ 1000 |  |  | activity at 10 µM (OT-1 cells): 162%; activation at 3 µM [6]: < 1% |
